# According to patent US11919912B2, “Modulators of methyl modifying enzymes, compositions and uses thereof” (Constellation Pharmaceuticals, Inc., priority 2018, dated 2024):
# pEC50, pIC50: −log10 of the molar value.
# Experiments:
# [1] = test system: H3K27me3 in Hela cells; test: H3K27me3 Alpha Hela Assay (AlphaLISA); type: cell-based; details: Homo sapiens, 72 hrs
# Description: H3K27me3 Alpha Hela Assay (AlphaLISA). Ten different doses of each test compound (in a series of 3-fold dilutions) were plated in duplicate 384-well tissue culture treated plates (Catalog #6007680; Perkin Elmer, Waltham, MA). Hela cells grown in culture were trypsinized and counted using a Countess® cell counter (Catalog #C10281; Life Technologies, Grand Island, NY). Cell were diluted to 67,000 cells per mL in10% DMEM (Catalog #10569-010 Life Technologies, Grand Island, NY) and 15 μL (1,000 cells) were plated into each well using the Biotek MicroFlo™ Select Dispenser (BioTek Instruments, Inc. Vermont, USA),) of the 384-well plate. Plates were incubated at 37° C./5% CO2 for 72 hrs. One of the duplicate plates was processed for HeLa assay and the other for viability. […] The plates were then read using an EnVision-Alpha Reader (model #2104 Perkin Elmer; Waltham, MA).
# Cell viability was assayed by adding 15 μL of Cell Titer Glo ((Catalog #G9241 Promega Madison, WI) to each well with cells with media. The plates were incubated at RT for 15-20 minutes on a plate shaker at low speed. The plates were then read using an EnVision-Alpha Reader (model #2104 Perkin Elmer; Waltham, MA).
# [2] = test system: Karpas-422 cell lines; test: Karpas-422 viability assay (Cell Titer-Glo); type: cell-based; details: Homo sapiens, Cell Titer-Glo on Day 8, cells split every 4 days
# Description: Karpas-422 cell lines were obtained from DSMZ (Braunschweig, Germany) and were grown in RPMI-1640 media. All media contained 10% fetal bovine serum (FBS) and 1% penicillin/streptomycin (Invitrogen). 20K cells per well were plated onto 96 well compound coated plates. Cells were split and seeded at original plating density (based on the DMSO well counts) every 4 days into plates containing fresh EZH2 inhibitors. Relative cell numbers were assessed by Cell Titer-Glo luminescent cell viability assay (Promega) on Day 8. GraphPad Prism 5 was used for curve fitting and GI50 values were reported.
# [3] = target: T1, PRC2 containing wt EZH2 (Homo sapiens, UniProt Q15910); test: EZH2 biochemical assay (IC50), incorporation of 3H-SAM into a biotinylated H3 peptide; details: 30 pM PRC2 (wt EZH2, pentameric complex), pre-incubated 3-5 h, reaction 18-22 h
# T1 construct: made in house
# T1 sequence (Q15910 whole entry): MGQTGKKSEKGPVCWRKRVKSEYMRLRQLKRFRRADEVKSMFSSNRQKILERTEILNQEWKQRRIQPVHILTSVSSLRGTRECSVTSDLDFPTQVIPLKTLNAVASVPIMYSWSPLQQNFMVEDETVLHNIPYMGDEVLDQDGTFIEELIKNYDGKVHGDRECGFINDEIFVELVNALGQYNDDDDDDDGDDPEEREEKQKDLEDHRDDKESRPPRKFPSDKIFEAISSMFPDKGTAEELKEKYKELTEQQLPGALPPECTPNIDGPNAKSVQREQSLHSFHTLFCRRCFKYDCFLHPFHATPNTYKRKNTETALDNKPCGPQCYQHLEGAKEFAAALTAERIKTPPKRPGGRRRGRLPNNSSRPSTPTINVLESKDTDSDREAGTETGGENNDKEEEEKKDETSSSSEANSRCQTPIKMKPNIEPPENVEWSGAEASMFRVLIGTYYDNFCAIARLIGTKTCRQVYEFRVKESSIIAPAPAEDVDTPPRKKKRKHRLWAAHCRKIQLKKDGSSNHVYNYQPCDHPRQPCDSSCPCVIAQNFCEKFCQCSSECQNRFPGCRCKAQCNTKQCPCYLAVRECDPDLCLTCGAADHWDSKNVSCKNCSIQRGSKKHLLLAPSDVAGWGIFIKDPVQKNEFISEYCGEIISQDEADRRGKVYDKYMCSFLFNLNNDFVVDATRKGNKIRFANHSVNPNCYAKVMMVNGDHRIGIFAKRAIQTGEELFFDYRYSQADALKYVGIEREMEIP
# T1 sequence (O75530 whole entry partner): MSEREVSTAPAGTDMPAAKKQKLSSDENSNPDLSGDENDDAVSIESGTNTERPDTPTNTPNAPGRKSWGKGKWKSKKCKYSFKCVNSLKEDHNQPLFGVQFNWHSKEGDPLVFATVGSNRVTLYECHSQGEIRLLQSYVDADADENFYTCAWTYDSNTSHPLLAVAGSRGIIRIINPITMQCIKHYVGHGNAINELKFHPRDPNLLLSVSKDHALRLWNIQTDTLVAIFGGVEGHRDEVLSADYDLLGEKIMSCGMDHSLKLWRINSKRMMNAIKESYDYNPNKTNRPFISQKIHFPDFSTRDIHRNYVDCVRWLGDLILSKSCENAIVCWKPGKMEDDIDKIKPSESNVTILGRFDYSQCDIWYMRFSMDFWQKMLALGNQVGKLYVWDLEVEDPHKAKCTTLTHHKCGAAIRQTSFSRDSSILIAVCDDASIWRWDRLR
# T1 sequence (Q15022 whole entry partner): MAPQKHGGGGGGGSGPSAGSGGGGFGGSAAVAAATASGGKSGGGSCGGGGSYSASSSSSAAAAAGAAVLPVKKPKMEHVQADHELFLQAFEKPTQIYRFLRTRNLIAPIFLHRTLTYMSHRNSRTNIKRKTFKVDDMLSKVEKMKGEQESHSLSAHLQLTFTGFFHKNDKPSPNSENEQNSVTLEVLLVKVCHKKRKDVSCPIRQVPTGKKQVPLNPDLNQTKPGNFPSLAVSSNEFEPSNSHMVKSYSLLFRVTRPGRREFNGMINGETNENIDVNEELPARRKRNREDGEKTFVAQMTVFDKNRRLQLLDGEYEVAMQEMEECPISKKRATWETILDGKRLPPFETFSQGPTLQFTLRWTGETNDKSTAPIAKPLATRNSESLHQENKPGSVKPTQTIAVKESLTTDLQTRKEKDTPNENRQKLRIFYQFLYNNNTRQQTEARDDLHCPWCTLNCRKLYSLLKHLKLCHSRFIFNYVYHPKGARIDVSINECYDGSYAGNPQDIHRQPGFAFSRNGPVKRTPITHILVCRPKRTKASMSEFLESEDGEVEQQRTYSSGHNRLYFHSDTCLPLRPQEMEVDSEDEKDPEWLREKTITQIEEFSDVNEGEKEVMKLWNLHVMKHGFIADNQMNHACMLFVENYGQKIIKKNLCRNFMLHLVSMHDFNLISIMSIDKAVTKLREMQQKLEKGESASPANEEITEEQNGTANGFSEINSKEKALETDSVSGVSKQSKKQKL
# T1 sequence (Q09028 whole entry partner): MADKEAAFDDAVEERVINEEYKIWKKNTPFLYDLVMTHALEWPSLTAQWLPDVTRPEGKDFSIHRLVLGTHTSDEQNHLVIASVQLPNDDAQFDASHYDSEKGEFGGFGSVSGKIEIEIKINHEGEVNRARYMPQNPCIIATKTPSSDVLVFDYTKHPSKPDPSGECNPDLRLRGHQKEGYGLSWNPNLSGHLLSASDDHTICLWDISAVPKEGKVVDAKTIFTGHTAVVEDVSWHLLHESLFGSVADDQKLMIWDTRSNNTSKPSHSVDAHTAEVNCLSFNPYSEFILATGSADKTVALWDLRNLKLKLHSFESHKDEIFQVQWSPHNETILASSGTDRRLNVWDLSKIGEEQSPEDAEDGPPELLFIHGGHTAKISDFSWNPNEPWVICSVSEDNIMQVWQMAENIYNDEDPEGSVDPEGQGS
# T1 sequence (Q6ZN18 whole entry partner): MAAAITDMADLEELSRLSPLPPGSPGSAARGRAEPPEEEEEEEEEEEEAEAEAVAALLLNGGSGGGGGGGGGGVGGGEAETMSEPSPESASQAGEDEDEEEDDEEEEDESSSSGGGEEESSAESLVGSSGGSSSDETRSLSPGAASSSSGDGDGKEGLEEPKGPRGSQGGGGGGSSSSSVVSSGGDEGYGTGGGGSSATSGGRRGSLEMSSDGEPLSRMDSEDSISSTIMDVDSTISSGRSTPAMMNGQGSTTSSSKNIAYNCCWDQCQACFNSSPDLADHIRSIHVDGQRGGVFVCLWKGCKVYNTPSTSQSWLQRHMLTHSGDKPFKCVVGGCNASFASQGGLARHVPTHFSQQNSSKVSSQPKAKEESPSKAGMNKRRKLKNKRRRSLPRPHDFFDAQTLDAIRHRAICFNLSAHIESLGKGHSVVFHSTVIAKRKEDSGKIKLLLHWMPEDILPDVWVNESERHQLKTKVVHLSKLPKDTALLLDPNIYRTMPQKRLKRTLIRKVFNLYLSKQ
# Description: EZH2 biochemical assay (IC50): Compound potencies were assessed through incorporation of ^3H-SAM into a biotinylated H3 peptide. […] Quenching was accomplished by addition of 20 μl of STOP solution (50 mM Tris (pH 8.5), 200 mM EDTA, 2 mM SAH). 35 μl of the quenched solution was transferred to streptavidin coated FlashPlates (PerkinElmer), incubated 1-2 h, washed, and read in a TopCount Reader (PerkinElmer).
pEC50 [1],GI50 [2] [nM],pIC50 [3],Structure (SMILES)
8.95 to 9.07,5.7,,"CSc1cc(C)[nH]c(=O)c1CN1CCc2c(Cl)c3c(c(C)c2C1=O)OC(C)([C@H]1CC[C@H](N(C)C)CC1)O3 (single isomer, unassigned) [Example 1, Peak 1, 9-Chloro-2-(Trans-4-(Dimethylamino)Cyclohexyl)-2,4-Dimethyl-6-((6-Methyl-4-(Methylthio)-2-Oxo-1,2-Dihydropyridin-3-Yl)Methyl)-7,8-Dihydro-[1,3]Dioxolo[4,5-g]Isoquinolin-5(6H)-One]"
,,10.14 to 10.21,"CSc1cc(C)[nH]c(=O)c1Cn1ccc2c(Cl)c3c(c(C)c2c1=O)OC(C)([C@H]1CC[C@H](N(C)C)CC1)O3 (mixture of isomers) [Example 2, 9-Chloro-2-(Trans-4-(Dimethylamino)Cyclohexyl)-2,4-Dimethyl-6-((6-Methyl-4-(Methylthio)-2-Oxo-1,2-Dihydropyridin-3-Yl)Methyl)-[1,3]Dioxolo[4,5-g]Isoquinolin-]"
